{"source": "ChEMBL document CHEMBL5678818", "about": "“Discovery of potent SOS1 inhibitors that block RAS activation via disruption of the RAS-SOS1 interaction” (Proc Natl Acad Sci U S A, 2019)", "key": {"[1]": {"system": "Epidermal growth factor receptor (Homo sapiens), P00533 [UNDEFINED MUTATION]", "sequence (P00533 whole entry, looked up, stated change not applied)": "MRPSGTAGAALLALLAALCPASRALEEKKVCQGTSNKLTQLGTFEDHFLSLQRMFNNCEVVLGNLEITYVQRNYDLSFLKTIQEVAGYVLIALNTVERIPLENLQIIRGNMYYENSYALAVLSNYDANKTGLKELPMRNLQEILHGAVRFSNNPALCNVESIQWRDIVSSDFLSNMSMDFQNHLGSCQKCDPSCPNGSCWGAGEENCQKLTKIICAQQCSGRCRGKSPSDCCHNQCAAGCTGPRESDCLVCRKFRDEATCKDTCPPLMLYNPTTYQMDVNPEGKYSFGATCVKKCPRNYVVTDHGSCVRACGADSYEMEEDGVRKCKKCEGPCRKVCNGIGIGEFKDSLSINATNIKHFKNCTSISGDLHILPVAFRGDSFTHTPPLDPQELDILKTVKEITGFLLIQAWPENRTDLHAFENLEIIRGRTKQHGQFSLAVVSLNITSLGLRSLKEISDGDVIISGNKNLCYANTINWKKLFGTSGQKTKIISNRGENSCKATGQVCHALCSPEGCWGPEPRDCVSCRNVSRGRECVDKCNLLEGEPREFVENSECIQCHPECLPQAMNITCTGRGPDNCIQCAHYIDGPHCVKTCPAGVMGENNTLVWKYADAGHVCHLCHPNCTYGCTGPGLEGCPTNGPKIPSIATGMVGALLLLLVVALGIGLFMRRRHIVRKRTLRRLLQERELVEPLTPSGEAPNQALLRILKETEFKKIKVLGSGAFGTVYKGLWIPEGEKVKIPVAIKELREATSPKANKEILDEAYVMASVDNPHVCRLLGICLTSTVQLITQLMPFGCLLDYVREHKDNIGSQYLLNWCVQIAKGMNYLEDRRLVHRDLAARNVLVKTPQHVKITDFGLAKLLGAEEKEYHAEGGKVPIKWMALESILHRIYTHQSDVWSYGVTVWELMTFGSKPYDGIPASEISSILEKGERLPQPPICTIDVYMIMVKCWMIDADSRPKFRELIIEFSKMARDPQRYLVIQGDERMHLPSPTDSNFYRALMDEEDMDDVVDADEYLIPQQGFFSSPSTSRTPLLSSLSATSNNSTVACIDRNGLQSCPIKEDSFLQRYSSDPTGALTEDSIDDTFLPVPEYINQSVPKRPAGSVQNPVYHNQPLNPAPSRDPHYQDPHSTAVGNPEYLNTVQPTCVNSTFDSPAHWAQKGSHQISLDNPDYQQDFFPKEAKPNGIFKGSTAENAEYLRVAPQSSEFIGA", "experiment": "Inhibition of EGFR L747-T751del/Sins mutant (unknown origin) assessed as residual activity at 100 nM by KINOMEscan analysis relative to control"}, "[2]": {"biological_target": "Ephrin type-A receptor 5 (Homo sapiens) (UniProt P54756)", "sequence (P54756 whole entry)": "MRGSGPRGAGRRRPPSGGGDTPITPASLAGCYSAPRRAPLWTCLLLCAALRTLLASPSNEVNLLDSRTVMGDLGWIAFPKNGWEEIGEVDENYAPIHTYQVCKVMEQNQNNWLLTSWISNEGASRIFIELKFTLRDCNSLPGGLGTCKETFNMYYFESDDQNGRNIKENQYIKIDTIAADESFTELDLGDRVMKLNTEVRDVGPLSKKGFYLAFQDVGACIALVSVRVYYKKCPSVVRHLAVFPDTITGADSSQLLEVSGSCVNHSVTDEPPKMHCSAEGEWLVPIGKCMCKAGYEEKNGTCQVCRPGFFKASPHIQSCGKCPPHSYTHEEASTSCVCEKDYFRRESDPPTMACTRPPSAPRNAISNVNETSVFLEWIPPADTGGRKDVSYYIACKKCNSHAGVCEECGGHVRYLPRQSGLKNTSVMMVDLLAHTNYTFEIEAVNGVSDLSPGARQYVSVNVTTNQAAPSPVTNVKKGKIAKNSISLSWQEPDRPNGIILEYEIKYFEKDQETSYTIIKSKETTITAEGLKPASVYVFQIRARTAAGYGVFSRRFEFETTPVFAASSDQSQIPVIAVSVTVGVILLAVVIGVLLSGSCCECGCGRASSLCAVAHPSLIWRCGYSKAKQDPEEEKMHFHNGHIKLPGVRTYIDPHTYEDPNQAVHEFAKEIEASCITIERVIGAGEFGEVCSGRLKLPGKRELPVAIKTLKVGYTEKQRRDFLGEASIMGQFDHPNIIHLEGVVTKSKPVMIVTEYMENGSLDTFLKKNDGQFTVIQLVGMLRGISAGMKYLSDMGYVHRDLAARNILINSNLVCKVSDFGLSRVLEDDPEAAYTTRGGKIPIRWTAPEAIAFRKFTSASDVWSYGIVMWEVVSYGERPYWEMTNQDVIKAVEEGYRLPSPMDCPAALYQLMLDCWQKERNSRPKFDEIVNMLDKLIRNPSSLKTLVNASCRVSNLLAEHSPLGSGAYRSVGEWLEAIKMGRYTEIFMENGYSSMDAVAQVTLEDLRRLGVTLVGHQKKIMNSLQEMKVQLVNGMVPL", "experiment": "Inhibition of EPHA5 (unknown origin) assessed as residual activity at 100 nM by KINOMEscan analysis relative to control"}, "[3]": {"biological_target": "Mitogen-activated protein kinase 14 (Homo sapiens) (UniProt Q16539)", "sequence (Q16539 whole entry)": "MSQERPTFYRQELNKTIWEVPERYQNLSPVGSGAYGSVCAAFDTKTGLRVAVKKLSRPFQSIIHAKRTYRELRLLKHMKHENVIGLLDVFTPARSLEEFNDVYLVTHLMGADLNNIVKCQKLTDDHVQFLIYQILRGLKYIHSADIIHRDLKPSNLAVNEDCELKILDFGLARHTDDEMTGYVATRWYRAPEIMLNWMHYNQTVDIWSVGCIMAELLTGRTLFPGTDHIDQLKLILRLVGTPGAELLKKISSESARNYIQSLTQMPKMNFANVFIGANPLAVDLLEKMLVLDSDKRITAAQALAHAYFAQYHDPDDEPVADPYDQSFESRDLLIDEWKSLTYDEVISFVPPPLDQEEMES", "experiment": "Inhibition of p38-alpha (unknown origin) assessed as residual activity at 100 nM by KINOMEscan analysis relative to control"}, "[4]": {"biological_target": "T1, Phosphorylase b kinase gamma catalytic chain, liver/testis isoform (Homo sapiens) (UniProt P15735)", "T1 sequence (whole entry)": "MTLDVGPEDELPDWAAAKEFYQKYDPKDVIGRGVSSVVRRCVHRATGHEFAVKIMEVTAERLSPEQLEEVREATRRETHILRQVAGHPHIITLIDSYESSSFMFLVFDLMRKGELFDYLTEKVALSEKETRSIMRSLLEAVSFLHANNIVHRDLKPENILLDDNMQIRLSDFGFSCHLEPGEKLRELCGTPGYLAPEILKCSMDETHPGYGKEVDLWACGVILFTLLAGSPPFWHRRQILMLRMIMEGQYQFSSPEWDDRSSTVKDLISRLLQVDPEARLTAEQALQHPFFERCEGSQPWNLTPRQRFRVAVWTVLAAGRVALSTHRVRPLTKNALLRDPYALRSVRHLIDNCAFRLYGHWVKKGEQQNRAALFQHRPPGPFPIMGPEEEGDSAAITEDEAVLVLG", "experiment": "Inhibition of PHKG2 (unknown origin) assessed as residual activity at 100 nM by KINOMEscan analysis relative to control"}, "[5]": {"biological_target": "T2, Phosphatidylinositol 3-kinase C2 domain-containing subunit gamma (Homo sapiens) (UniProt O75747)", "T2 sequence (whole entry)": "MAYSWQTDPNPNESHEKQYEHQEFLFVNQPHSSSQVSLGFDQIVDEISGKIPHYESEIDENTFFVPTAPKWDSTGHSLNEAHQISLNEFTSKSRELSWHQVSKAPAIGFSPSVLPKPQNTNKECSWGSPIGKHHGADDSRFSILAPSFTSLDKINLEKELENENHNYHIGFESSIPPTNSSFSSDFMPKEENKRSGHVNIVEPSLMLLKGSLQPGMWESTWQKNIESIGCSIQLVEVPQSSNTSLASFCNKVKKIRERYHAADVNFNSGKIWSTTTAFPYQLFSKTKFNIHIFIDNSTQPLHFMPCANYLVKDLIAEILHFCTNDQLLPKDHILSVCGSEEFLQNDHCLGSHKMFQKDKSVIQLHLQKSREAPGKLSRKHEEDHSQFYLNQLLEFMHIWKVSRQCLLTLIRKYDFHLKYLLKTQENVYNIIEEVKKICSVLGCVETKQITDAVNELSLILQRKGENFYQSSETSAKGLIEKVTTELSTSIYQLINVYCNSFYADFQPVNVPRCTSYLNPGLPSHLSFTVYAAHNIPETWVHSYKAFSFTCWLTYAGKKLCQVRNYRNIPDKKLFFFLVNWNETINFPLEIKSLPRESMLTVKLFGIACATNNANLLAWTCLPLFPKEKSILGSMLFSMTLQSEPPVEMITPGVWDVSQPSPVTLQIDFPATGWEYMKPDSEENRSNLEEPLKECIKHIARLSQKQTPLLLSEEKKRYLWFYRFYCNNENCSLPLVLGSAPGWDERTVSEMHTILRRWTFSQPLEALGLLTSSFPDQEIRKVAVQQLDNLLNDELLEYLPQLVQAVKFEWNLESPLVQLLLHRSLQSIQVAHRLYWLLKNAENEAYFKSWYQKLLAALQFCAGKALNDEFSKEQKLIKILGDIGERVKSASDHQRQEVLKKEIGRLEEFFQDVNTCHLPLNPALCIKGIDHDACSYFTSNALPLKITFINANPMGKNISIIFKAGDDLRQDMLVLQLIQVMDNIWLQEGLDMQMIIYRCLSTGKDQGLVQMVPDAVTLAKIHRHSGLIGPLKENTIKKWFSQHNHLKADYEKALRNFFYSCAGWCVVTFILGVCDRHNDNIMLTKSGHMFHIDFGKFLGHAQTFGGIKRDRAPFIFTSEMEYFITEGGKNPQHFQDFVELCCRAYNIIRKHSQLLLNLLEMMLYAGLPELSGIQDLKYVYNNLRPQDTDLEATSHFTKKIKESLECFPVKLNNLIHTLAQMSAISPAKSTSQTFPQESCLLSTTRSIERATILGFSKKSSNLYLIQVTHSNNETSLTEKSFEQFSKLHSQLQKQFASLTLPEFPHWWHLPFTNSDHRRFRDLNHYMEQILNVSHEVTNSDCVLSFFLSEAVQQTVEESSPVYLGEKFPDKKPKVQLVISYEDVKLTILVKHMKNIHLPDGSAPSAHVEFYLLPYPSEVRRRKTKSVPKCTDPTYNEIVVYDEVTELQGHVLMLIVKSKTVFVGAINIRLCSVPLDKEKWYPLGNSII", "experiment": "Inhibition of PIK3C2G (unknown origin) assessed as residual activity at 100 nM by KINOMEscan analysis relative to control"}, "[6]": {"biological_target": "T3, cGMP-dependent protein kinase 1 (Homo sapiens) (UniProt Q13976)", "T3 sequence (whole entry)": "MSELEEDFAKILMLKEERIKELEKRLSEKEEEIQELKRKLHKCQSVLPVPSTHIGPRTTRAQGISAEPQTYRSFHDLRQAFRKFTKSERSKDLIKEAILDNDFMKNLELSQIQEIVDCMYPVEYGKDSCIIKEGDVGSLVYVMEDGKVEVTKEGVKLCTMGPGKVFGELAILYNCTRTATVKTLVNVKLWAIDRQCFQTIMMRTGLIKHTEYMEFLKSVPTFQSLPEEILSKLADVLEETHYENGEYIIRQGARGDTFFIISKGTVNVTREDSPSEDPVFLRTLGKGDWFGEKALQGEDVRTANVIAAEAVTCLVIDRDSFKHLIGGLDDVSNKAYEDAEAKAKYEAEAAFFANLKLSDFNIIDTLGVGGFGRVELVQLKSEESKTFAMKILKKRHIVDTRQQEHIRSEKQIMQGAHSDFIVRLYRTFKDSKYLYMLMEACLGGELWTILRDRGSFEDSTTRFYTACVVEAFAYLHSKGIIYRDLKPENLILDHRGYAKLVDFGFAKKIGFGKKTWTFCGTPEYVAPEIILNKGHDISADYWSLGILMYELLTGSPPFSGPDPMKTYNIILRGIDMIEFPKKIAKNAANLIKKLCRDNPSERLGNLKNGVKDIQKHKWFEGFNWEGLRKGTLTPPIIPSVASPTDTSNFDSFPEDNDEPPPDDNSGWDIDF", "experiment": "Inhibition of PRKG1 (unknown origin) assessed as residual activity at 100 nM by KINOMEscan analysis relative to control"}}, "data": [{"smiles": "COc1cc2ncnc(N[C@H](C)c3cccc4ccccc34)c2cc1OC", "values": [{"measurement": "Activity", "setting": "[1]", "result": 80, "unit": "%"}, {"measurement": "Activity", "setting": "[2]", "result": 86, "unit": "%"}, {"measurement": "Activity", "setting": "[3]", "result": 89, "unit": "%"}, {"measurement": "Activity", "setting": "[4]", "result": 100, "unit": "%"}, {"measurement": "Activity", "setting": "[5]", "result": 85, "unit": "%"}, {"measurement": "Activity", "setting": "[6]", "result": 96, "unit": "%"}]}]}
